Measured values: patent US12428377B2, “Sodium-hydrogen exchanger 3 inhibitor compounds” (Eli Lilly and Company, priority 2019, dated 2025)

How the values were obtained:
Assay type in all cases: in vivo, rat
male Sprague Dawley rats [1] = experiment: Radiolabeled phosphate absorption in rats, Studies 1-3 (plasma radioactivity); details: Study 2, rats; for Absorption (vs. vehicle control): mean ± SEM
Method: Effect of Example 2 in Combination with an NPT2b Inhibitor (Compound A) on Phosphate Absorption in Rats
NPT2b inhibitor dosing solutions: Compound A and poly-1-vinylpyrrolidone-co-vinyl acetate (PVP-VA, Sigma-Aldrich) are weighed into a bottle at a ratio of 30% Compound A and 70% PVP-VA by weight. A clear yellow solution is prepared by diluting the mixture in MeOH followed by the addition of 2 mol NaOH per mol Compound A using 5 N NaOH. The solution is spray dried by a stream of hot nitrogen and the solid dispersion powder is collected and then further dried in a vacuum oven. Doses for the sprayed dried solid dispersion (SDD) are expressed as active pharmaceutical ingredient (API) throughout.
To make the Compound A dosing solution, an appropriate amount of Compound A SDD is weighed in a vial and dissolved in water (10 mL/kg dosing volume). […] The subsequent solutions for lower doses are prepared by serial dilutions with water. PVP-VA at 7 mg/mL is used as a vehicle control.
NHE3 inhibitor dosing solutions: To make the Example 2 dosing solution, an appropriate amount of the compound is weighed in a vial and dissolved in 1% HEC (10 mL/kg dosing volume). […] The subsequent solutions for lower doses are prepared by serial dilutions with HEC.
To make the radiolabeled phosphate dosing solution, a 16.25 mM Na2HPO4, 0.9% saline, pH 7.4 solution is prepared and filtered using a sterile, 0.22 μm, polyethersulfone, Millex-GP Syringe Filter Unit (EMD Millipore). Radioactive phosphate (H3^33PO4, Perkin Elmer) is added at about 2.5 μCi per mL of the solution and filtered again.
Three separate studies are performed. In these studies, male Sprague Dawley rats, are randomized into groups with approximately equal mean body weights. Following an overnight fast, all the animals are dosed at 10 mL/kg with either vehicle, varying doses of Compound A (Study 1), varying doses of Example 2 (Study 2) or 1.2 mg/kg Compound A and varying doses of Example 2 (Study 3). 15 min later, radiolabeled phosphate is orally dosed in a 2 mL volume. 15 min later, blood is collected and plasma is prepared. Radioactivity (dpm) in 50 μL plasma is measured by scintillation counting and is used to calculate phosphate absorption. The results are normalized with the vehicle controls representing 100% absorption. The curves are fitted with nonlinear regression with variable slope using GraphPad Prism 6 to calculate the ED50 and Emax given in Table 7. […] No curve fit was performed for Compound A alone in Study 1.

[2] = test system: male spontaneously hypertensive (SHR) rats; experiment: Effect on blood pressure (telemetry) in spontaneously hypertensive rats; details: 0.15 mg/kg/day
Source text: Effect of Example 2 on Blood Pressure Male spontaneously hypertensive (SHR) rats weighing 250-300 g with age of 7 weeks are acclimated to a reversed light cycle (8:00 am lights off and 8:00 pm lights on) and fed regular chow and water ad libitum. Implantable telemetry devices (model TA11PA-C40, Data Sciences International) are implanted into the abdominal aorta. After recovering from surgery, rats are placed in individual cages in a quiet telemetry facility room for measuring blood pressure (mean arterial pressure, MAP) and heart rate (HR). Digitized pressure signals are acquired for 20 second every 5 min using DSI Dataquest IV 4.0 software. The 31 SHR rats are randomized by MAP into two groups and treated twice daily for 14 days with vehicle (n=15) (10% acacia, 0.05% antifoam in purified water) or 0.15 mg/kg/day Example 2. The first dose is given between 6:00 and 6:30 am (2 h prior to lights off) and the second dose is given between 4:00 and 4:30 pm. The daily food consumption and body weight gain are also monitored. MAP, HR, and body weight (BW) data are analyzed by repeated measures analysis of covariance (ANCOVA) with baseline as the covariate. Food consumption (FC) data are analyzed by repeated measures analysis of variance (ANOVA). The mean blood pressure across the time course of the study (days 1-14) for the group treated with 0.15 mg/kg/day of Example 2 is 4.83 mm Hg less than that of the control group with a p-value of 0.0007 (Table 1).

male Sprague Dawley rats [3] = experiment: Phosphate absorption 15 min after radiolabeled phosphate (Example 2, Compound A, combination); details: Example 2 0.4 mg/kg, plasma 15 min after radiolabeled phosphate, P=0.046 versus vehicle control
Method: Effect of Example 2 in Combination with an NPT2b Inhibitor (Compound A) on Phosphate Absorption and Intestinal Phosphate Retention in Rats
The purpose of this study is to investigate in rats the effect of Example 2, Compound A, and an Example 2/Compound A combination on phosphate absorption 15 min after dosing the compounds and the phosphate retained in the intestine 4.25 h after dosing the compounds. The latter is a measure of the oral phosphate load which is absorbed over an extended period.
Two vehicles are used in this study: 1) 1% HEC and 2) 0.46% poly-1-vinylpyrrolidone-co-vinyl acetate in water (PVP-VA vehicle). The vehicle control group in this study receives a 1:1 combination of the two vehicles.
The Example 2, Compound A and phosphate dosing solutions are prepared similarly as described above, except the doses are 0.4 mg/kg for Example 2 and 10 mg/kg for Compound A and they are prepared at a concentration where they would be dosed in a 5 mL/kg volume. […]
Male Sprague Dawley rats are fasted 4 h and then administered appropriate vehicles, 10 mg/kg Compound A, 0.4 mg/kg Example 2, or a combination of both compounds. […] Radioactivity in plasma is measured by scintillation counting and used to calculate the inhibition of phosphate absorption. […] Statistical significance is determined by ANOVA with a Dunnett's comparison to the Example 2/Compound A combination using JMP 12.1.

CN1Cc2c(Cl)cc(Cl)cc2[C@H](c2cccc(S(=O)(=O)NCCOCCOCCN/C(=N\C(N)=O)NCCCCN/C(=N/C(N)=O)NCCOCCOCCNS(=O)(=O)c3cccc([C@@H]4CN(C)Cc5c(Cl)cc(Cl)cc54)c3)c2)C1.Cl.Cl [Example 2, [[4-[[N′-Carbamoyl-N-[2-[2-[2-[[3-[(4S)-6,8-dichloro-2-methyl-3,4-dihydro-1H-isoquinolin-4-yl]phenyl]sulfonylamino]ethoxy]ethoxy]ethyl]carbamimidoyl]amino]butylamino]-[2-[2-[2-[[3-[(4S)-6,8-dichloro-2-methyl-3,4-dihydro-1H-isoquinolin-4-yl]phenyl]sulfonylamino]ethoxy]ethoxy]ethylamino]methylene]urea dihydrochloride]
ED50 (male Sprague Dawley rats [1]; Rattus norvegicus, Example 2 alone): 0.041 mg/kg
Absorption (vs. vehicle control) (male Sprague Dawley rats [1]; Example 2 0.001 mg/kg): 97.16 ± 20.76%
Absorption (vs. vehicle control) (male Sprague Dawley rats [1]; Example 2 0.003 mg/kg): 100.81 ± 20.74%
Absorption (vs. vehicle control) (male Sprague Dawley rats [1]; Example 2 0.01 mg/kg): 75.15 ± 15.52%
Absorption (vs. vehicle control) (male Sprague Dawley rats [1]; Example 2 0.03 mg/kg): 83.17 ± 17.99%
Absorption (vs. vehicle control) (male Sprague Dawley rats [1]; Example 2 0.1 mg/kg): 57.29 ± 11.20%
Absorption (vs. vehicle control) (male Sprague Dawley rats [1]; Example 2 0.3 mg/kg): 71.09 ± 13.98%
Absorption (vs. vehicle control) (male Sprague Dawley rats [1]; Example 2 1 mg/kg): 44.29 ± 9.09%
Absorption (vs. vehicle control) (male Sprague Dawley rats [1]; Example 2 3 mg/kg): 60.04 ± 12.00%
Absorption (vs. vehicle control) (male Sprague Dawley rats [1]; Example 2 10 mg/kg): 63.47 ± 8.39%
% Inhibition at the highest dose (phosphate absorption) (male Sprague Dawley rats [1]; Example 2 highest dose tested (10 mg/kg), dihydrochloride): 37%
Effect on body weight (BW) ([2]; 14 days): No significant effect
Effect on food consumption (FC) ([2]; 14 days): No significant effect
Effect on heart rate (HR) ([2]; 14 days): No significant effect
Difference in mean blood pressure vs vehicle ([2]; days 1-14, less than control, p-value 0.0007): 4.83 mm Hg
Mean blood pressure over days 1-14 ([2]; twice daily for 14 days): 153.33 mm Hg
Inhibition of phosphate absorption (male Sprague Dawley rats [3]): 29%
